Reference: publication PMC5884943, “Discovery of Novel Inhibitors of Indoleamine 2,3-Dioxygenase 1 Through Structure-Based Virtual Screening” (Frontiers in Pharmacology, 2018)
pIC50: −log10 of the molar value. Read-outs that look alike come from different tables or passages of the source. Values belong to the molecule of their own block, whether it stands above or below them.

Key:
IDO1 = conditions: Figure 1, published IDO1 inhibitors, cited from earlier work
human IDO1 protein = target: T1, human IDO1 protein (Homo sapiens, UniProt P14902); assay: Enzymatic IDO1 assay (Absorbance 321 assay); assay type: biochemical; conditions: for inhibition at 20 µM: 20 μM compound, read-out: Inhibition ratio (%) @ 20 μM; for pIC50: IDO1 enzymatic level
T1 construct: purchased ChemPartner Lot; No. 20160706

IDO1 in HeLa cells = target: T2, IDO1 in HeLa cells (Homo sapiens, UniProt P14902); assay: HeLa cellular IDO1 assay (kynurenine OD 480 nm after IFN-γ); assay type: cell-based; conditions: IDO1 inhibition in HeLa cells, 48 h
T2 construct: endogenous in cells; host or cells: HeLa (ATCC CCL-2), stimulated with recombinant human IFN-γ
Method: We chose HeLa cell line (ATCC, Cat. No. CCL-2, 4965442) to detect whether our compounds could inhibit IDO activity at cellular level by optical density (OD) assay. The assay was performed in 96-well flat bottom plate (CORNING, Cat. No. 3903) seeded with 5,000 cells in a final volume of 100 μL. Each well 80 μL HeLa cells were incubated overnight at 37°C in EMEM (Invitrogen, Cat. No. 11095098) supplemented with 10% FBS (Invitrogen, Cat. No. 10099-141, Lot. No. 8153379). Then compounds that have been serial diluted were added in corresponding well and 10 μL Recombinant Human IFN-γF (Peprotech, Cat. No. 300-02) was added in each well except wells for Min (Medium containing 0.5% DMSO with cells). The mixture of cells were incubated at 37°C, 5% CO2 for 48 h. Then transferred 90 μL of supernatant to 96-well plate (CORNING, Cat. No. 3599) and store at −20°C fridge for colormetric analysis. The next day, 10 μL of 6.1 N trichloroacetic acid (Sigma, Cat. No. T0699) were added in each well after transferred 80 μL supernatant to 96-well plate (CORNING, Cat. No. 3894). Then the mixture was incubated at 50°C for 30 min. Sediments were removed by centrifuged for 10 min at 2,500 rpm. Seventy microliters of 70 μL of 2% (w/v) p-dimethylaminobenzaldehyde (Sigma-Aldrich, Cat. No. 15647-7) was added after 70 μL of the supernatant were transferred to assay plate (CORNING, Cat. No. 3635). Finally, OD-value was measured at 480 nm using an EnSpire (PE).

T1 sequence (P14902 whole entry): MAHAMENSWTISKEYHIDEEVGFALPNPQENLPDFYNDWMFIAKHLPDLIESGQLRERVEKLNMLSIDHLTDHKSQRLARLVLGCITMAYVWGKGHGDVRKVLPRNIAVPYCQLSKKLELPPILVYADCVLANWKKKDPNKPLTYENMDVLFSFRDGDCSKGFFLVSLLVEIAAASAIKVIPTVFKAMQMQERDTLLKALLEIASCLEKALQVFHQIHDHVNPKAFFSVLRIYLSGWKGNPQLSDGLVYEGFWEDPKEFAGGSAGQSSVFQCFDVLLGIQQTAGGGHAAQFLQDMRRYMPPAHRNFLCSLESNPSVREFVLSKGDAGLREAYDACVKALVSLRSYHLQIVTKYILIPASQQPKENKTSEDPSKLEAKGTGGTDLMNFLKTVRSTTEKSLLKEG
T2 sequence (P14902 whole entry): as above

SMILES: Cc1ccc(-c2csc3nnc(SCC(=O)Nc4ccc5c(c4)OCO5)n23)cc1 [Amg-1]
- pIC50 (IDO1; ref Meininger et al., 2011): 4.44

SMILES: Cc1ccc([N+](=O)[O-])cc1N1COc2ccc3ccccc3c2C1 [DC-I02804]
- inhibition at 20 µM (human IDO1 protein): 39.1%
- pIC50 (human IDO1 protein): 4.56
- pIC50 (IDO1 in HeLa cells): 4.01

SMILES: COc1ccc(C(=O)NC(=S)Nc2c(O)ccc3ccccc23)cc1Br [DC-I02805]
- inhibition at 20 µM (human IDO1 protein): 54.7%
- pIC50 (human IDO1 protein): 4.86
- Hela / Cellular IC50 (IDO1 in HeLa cells): No activity

More lines, in order of rising pIC50 (human IDO1 protein), values ahead:

- inhibition at 20 µM (human IDO1 protein): 42.2%
- pIC50 (human IDO1 protein): 4.35
- pIC50 (IDO1 in HeLa cells): 4.25
SMILES: Cc1ccc(Cl)cc1N1COc2ccc3ccccc3c2C1 [DC-I02802]

- inhibition at 20 µM (human IDO1 protein): 58%
- Inhibition ratio (%) @ 50 μM (human IDO1 protein; 50 μM compound): 82%
- Avg_Inh (%) @ 50uM (human IDO1 protein; 50 uM, average inhibition, Table S2): 82.33%
- pIC50 (human IDO1 protein): 4.67
- Background (%) (human IDO1 protein; background signal of the compound in the absorbance assay): 55.25%
- pIC50 (IDO1 in HeLa cells): 4.05
SMILES: Clc1ccc(N2COc3ccc4ccccc4c3C2)cc1 [DC-I028]

- inhibition at 20 µM (human IDO1 protein): 75.3%
- pIC50 (human IDO1 protein): 4.73
- pIC50 (IDO1 in HeLa cells): 4.74
SMILES: CCOc1cc(C(=O)NC(=S)Nc2c(O)ccc3ccccc23)cc(OCC)c1OCC [DC-I02806]

- inhibition at 20 µM (human IDO1 protein): 61.3%
- pIC50 (human IDO1 protein): 4.75
- pIC50 (IDO1 in HeLa cells): 4.33
SMILES: O=C(NC(=S)Nc1c(O)ccc2ccccc12)c1ccccc1Br [DC-I02808]
